Converted amounts (≈) assume the structure as drawn. Read-outs that look alike come from different tables or passages of the source. Ends that are not written are not given here.
Assays:
E. coli MG1655 [1] = assay: microbe, parasite or virus in culture; format: cell-based, Escherichia coli; settings: 4 hours, 50% reduction of CFUs vs control, Mueller Hinton Broth, 37°C, five replicates, repeated twice
Protocol: The MIC50s for all antimicrobials were determined by inoculating strains grown to mid-log phase into the wells of a 96-microwell plate. Approximately 10^2 cells from overnight cultures were inoculated into tubes containing 10 ml of Mueller Hinton Broth medium, and the tubes were incubated at 37°C with strong shaking until the mid-log phase of growth (approximately 10^8 cells/ml). […] The plates were incubated at 37°C for 4 h with continuous shaking in a plate reader (Synergy 2, BioTeK). After four hours, aliquots from wells with OD^600 readings ranging from 10 to 90% values in comparison with the control, were serially diluted in sterile 0.9% NaCl, and incubated during 1 hour to allow the resolution of filaments as consequence of SOS activation, if any. Bacterial suspensions were plated in Mueller Hinton Broth agar plates to estimate the viability as colony forming units (CFUs). Five replicates per concentration were prepared and the experiments were repeated twice.

E. coli MG1655 [2] = assay: Luria-Delbrück fluctuation assay, mutation rate (rifampicin resistance); format: cell-based, Escherichia coli; settings: concentrations ranging from 0.5 to 4 µg/ml (Figure S1)
Protocol: We first investigated the mutation rates of E. coli using a Luria-Delbrück fluctuation test. We used the Escherichia coli strain MG1655 and the concentration of all antimicrobials was adjusted to limit bacterial growth to 50% in four hours of treatment.
The duration of treatment was set to 4 hours for all antimicrobials, and the concentrations were adjusted to obtain around 50% of inhibition of grow in comparison to the a non-treated control. Three ml of exponentially growing culture of E. coli MG1655 (∼2×10^8 cells/ml) were centrifuged at 4000 g for 10 minutes and re-suspended in the same volume of MH with different concentrations of antimicrobials at 37°C with shaking (200 rpm). After incubation, the cultures were centrifuged for 10 min at 4000 g. The pellet was re-suspended, washed twice with MH and re-suspended in 3 ml of fresh medium and incubated overnight (16 h) at 37°C with shaking. This step is necessary to resolve the filaments that some antimicrobials induce due to their toxic action and allow recovery of cells under stress. Cultures were diluted and plated to determine the number of colony forming units in MH agar plates. The number of mutants was estimated by the number of colonies growing on rifampicin (100 µg/ml). […]
We also assessed if different AMP concentrations (Fig. S1) or different inoculum sizes (10^2, 10^4, 10^6, 10^8 cfu/ml) influenced mutation rates (Fig. S2).

[3] = tested on: E. coli stress response genes (strain MG1655); assay: Relative gene expression of stress response genes by quantitative real-time PCR; format: cell-based, Escherichia coli; settings: for Expression, cpxA (Envelope stress) / Expression, cpxR (Envelope stress) / Expression, dinB (SOS response) / Expression, lexA (SOS response) / Expression, marR (Independent multiple antibiotic resistance) / Expression, oxyR (Oxidative stress) / Expression, phoP (Envelope stress) / Expression, phoQ (Envelope stress) / Expression, recA (SOS response) / Expression, rpoE (Envelope stress) / Expression, rpoS (Sigma S response) / Expression, umuC (SOS response): normalized to arcA, mdoG, tus, Pexiganan 16, Melittin 16, Kanamycin 16, Ciprofloxacin 0.5, Lysozyme 128, Ampicillin 32 μg/ml, three biological replicates; on Result, cpxR: key: NDE: non-differentially expressed, p-value ≥ 0,05; UP: upregulated, p-value ≤ 0,05; DOWN: downregulated, p-value ≤ 0,05; on Result, oxyR: key: NDE: non-differentially expressed, p-value ≥ 0,05; UP: upregulated, p-value ≤ 0,05; DOWN: downregulated, p-value ≤ 0,05; on Result, rpoE: key: NDE: non-differentially expressed, p-value ≥ 0,05; UP: upregulated, p-value ≤ 0,05; DOWN: downregulated, p-value ≤ 0,05
Protocol: Preparation of each of the six treatments and the control samples was carried out by two operators on three consecutive days, thereby comprising three biological replicates for each of the six experimental and one control groups. To obtain the starting material for the experiment, a fresh bacterial culture was grown from a glycerol stock on Mueller-Hinton (MH) agar plates at 37°C for 18–24 hours. One well-isolated colony per biological replicate was used to inoculate 2 ml of liquid MH (Sigma) in a 10 ml sterile polypropylene tube and incubated at 37°C for 16 hours with mild shaking. The overnight (ON) culture was then diluted 1∶100 in MH, subdivided into seven 10 ml aliquots and incubated in 50 ml-Falcon tubes at 37°C for 2.5 hours at 220 rpm. When the OD600 of bacterial cultures reached 0.5–0.7, respective antibiotics and AMPs were added to a concentration to match with those used in the mutagenesis experiments. These bacterial cultures were incubated for 20 minutes at 37°C with gentle shaking. Two ml of bacterial cultures from each treatment and the control were collected, immediately centrifuged at 10000 g for 2 minutes and the supernatant was removed to stop the treatment. The bacterial pellet was then resuspended in 1 ml MH, followed by an addition of 1 ml of RNAprotect Bacteria Reagent (Qiagen), 5 minutes incubation and centrifugation at 10000 g for 2 minutes at room temperature. The supernatant was discarded and the bacterial pellet was immediately frozen and stored at −80°C until RNA extraction.
Total RNA was isolated using RNeasy kit (Qiagen) according to the manufacturer's instructions and eluted in 50 µl of RNase-free water. The nucleic acid yield and purity were determined by measuring the optical density at A260/280 using a Nanodrop spectrophotometer (Thermo Scientific). RNA samples were treated with TURBO DNase (Life Technologies). Briefly, ten µg of RNA were used in a total volume of 500 µl containing 20 units of TURBO DNase, incubated for 30 minutes at 37°C, immediately followed by RNeasy (Qiagen) cleanup and elution in 30 µl of RNase-free water. Following DNase treatment, RNA integrity was assessed using Agilent RNA 6000 Nano kit and 2100 Bioanalyzer instrument (both Agilent Technologies).
High-Capacity cDNA Reverse Transcription Kit with RNase Inhibitor (Applied Biosystems) was used for cDNA synthesis. Initially, to ensure linear conversion of the transcripts, the dynamic range of reverse transcription reaction was tested by performing a standard curve with cDNA, synthesised using various input amounts of pooled RNA. Total RNA (250 ng per reaction) and random primers were used for cDNA synthesis. To obtain sufficient amount of cDNA, several batches of 20 µl RT reactions were pooled, diluted 50-fold with RNase-free water and stored in single-use aliquots at −80°C until further use. All 21 samples were tested for presence of contaminating genomic DNA by running the mdoG assay with cDNA and the respective no reverse transcription (−RT) controls.
Escherichia coli strain K-12 substrain MG1655 complete genome (accession U00096) sequence was downloaded from NCBI database (www.ncbi.nlm.nih.gov) and used for primer design. Target sequence accession number, location of the amplicon, amplicon length and primer sequences for each assay can be found in table S2. Primers were designed using Primer Express software (Applied Biosystems) and optimized for annealing temperature of 60°C. Each primer pair and amplicon were checked for secondary structure formation using Oligo Tool (Integrated DNA technologies, http://eu.idtdna.com/analyzer/Applications/OligoAnalyzer/).

E. coli MG1655 [4] = assay: Minimal inhibitory concentration (MIC), micro-dilution; format: cell-based, Escherichia coli; settings: inoculum 2×10^8 cfu/ml, 24 h, liquid MH medium, 37°C
Protocol: E. coli K-12 MG1655 was used for all experiments, grown in liquid Mueller-Hilton (MH) agar or agarose, unless otherwise indicated. All experiments were carried out at 37°C.
MICs were determined according to CLSI recommendations by a micro-dilution method with the exception that the inoculum size that was adjusted to 2×10^8 cfu/ml from a regrowth of overnight cultures to be consistent with the mutagenesis experiments. […] Polypropylene non-binding plates (Th. Geyer, Germany) were used for all experiments.

E. coli MG1655 [5] = assay: Killing by AMPs under thiourea ROS scavenger; format: cell-based, Escherichia coli; settings: thiourea 100 mM (Figure S3)
Protocol: SOS and rpoS mediated mutagenesis are well supported by empirical work, and it was recently proposed that antibiotics promote ROS formation and kill bacterial by lethal induction of hydroxyl-mediated DNA damage. Here we explored this new and debated proposition also for AMPs. We assessed AMP killing curves in E. coli MG1655 in the presence of the ROS scavenger thiourea (100 mM) and used Kanamycin as positive control.
Kanamycin was used a positive control. The procedure was the same as described in this work elsewhere for MIC50 (Fig. S3).

[6] = tested on: E. coli stress response genes; settings: kanamycin 5 μg/ml, ref Kohanski,2007, cited from earlier work
[7] = qPCR, 20 minutes exposure vs non-treated bacteria, REST 2009 randomisation test
[8] = qPCR, 20 minutes exposure vs non-treated bacteria

| Compound | MIC50 (E. coli MG1655 [1]) [µg/mL] | mutation rates over a gradient of sub-inhibitory to inhibitory concentrations (E. coli MG1655 [2]) | Result, cpxA [3, 7] | Result, cpxR [3, 7] | Result, dinB [3, 7] | Result, lexA [3, 7] | Result, marR [3, 7] | Result, oxyR [3, 7] | Expression, cpxA (Envelope stress) [3, 8] | Expression, cpxR (Envelope stress) [3, 8] | Expression, dinB (SOS response) [3, 8] | Expression, lexA (SOS response) [3, 8] | Expression, marR (Independent multiple antibiotic resistance) [3, 8] | Expression, oxyR (Oxidative stress) [3, 8] | Expression, phoP (Envelope stress) [3, 8] | Expression, phoQ (Envelope stress) [3, 8] | Expression, recA (SOS response) [3, 8] | Expression, rpoE (Envelope stress) [3, 8] | Expression, rpoS (Sigma S response) [3, 8] | Expression, umuC (SOS response) [3, 8] | further results |
| --- | --- | --- | --- | --- | --- | --- | --- | --- | --- | --- | --- | --- | --- | --- | --- | --- | --- | --- | --- | --- | --- |
| CC[C@H](C)[C@H](NC(=O)CN)C(=O)NCC(=O)N[C@@H](C)C(=O)N[C@H](C(=O)N[C@@H](CC(C)C)C(=O)N[C@@H](CCCCN)C(=O)N[C@H](C(=O)N[C@@H](CC(C)C)C(=O)N[C@H](C(=O)N[C@H](C(=O)NCC(=O)N[C@@H](CC(C)C)C(=O)N1CCC[C@H]1C(=O)N[C@@H](C)C(=O)N[C@@H](CC(C)C)C(=O)N[C@H](C(=O)N[C@@H](CO)C(=O)N[C@@H](Cc1c[nH]c2ccccc12)C(=O)N[C@H](C(=O)N[C@@H](CCCCN)C(=O)N[C@@H](CCCNC(=N)N)C(=O)N[C@@H](CCCCN)C(=O)N[C@@H](CCCNC(=N)N)C(=O)N[C@@H](CCC(N)=O)C(=O)N[C@@H](CCC(N)=O)C(N)=O)[C@@H](C)CC)[C@@H](C)CC)[C@@H](C)O)[C@@H](C)O)C(C)C)C(C)C [Melittin] | 1.6 | did not change | NDE | NDE | NDE | NDE | NDE | NDE | 1.295 | 0.953 | 0.991 | 1.1 | 0.743 | 1.337 | 0.857 | 0.87 | 1.12 | 1.197 | 0.972 | 0.926 | Result, phoP [3, 7]: NDE; Result, phoQ [3, 7]: NDE; Result, recA [3, 7]: NDE; Result, rpoE [3, 7]: NDE; Result, rpoS [3, 7]: NDE; Result, umuC [3, 7]: NDE |
| NC[C@H]1O[C@H](O[C@H]2[C@H](O)[C@@H](O[C@H]3O[C@H](CO)[C@@H](O)[C@H](N)[C@H]3O)[C@H](N)C[C@@H]2N)[C@H](O)[C@@H](O)[C@@H]1O [Kanamycin] | 1.6 | – | NDE | NDE | NDE | NDE | NDE | NDE | 1.069 | 0.812 | 1.083 | 1.302 | 1.073 | 1.333 | 0.94 | 0.769 | 1.331 | 1.236 | 0.967 | 0.974 | MIC (E. coli MG1655 [4]): 2 µg/mL (≈ 4.13 µM); killing / sensitivity in the presence of the ROS scavenger thiourea (E. coli MG1655 [5]): reduced sensitivity; Result, phoP [3, 7]: NDE; Result, phoQ [3, 7]: NDE; Result, recA [3, 7]: NDE; Result, rpoE [3, 7]: NDE; Result, rpoS [3, 7]: NDE; Result, umuC [3, 7]: NDE; expression, rpoE (microarray database) ([6]; 30 min): 2.118; expression, marR (microarray database) ([6]; 60 min): 8.767; expression, phoP (microarray database) ([6]; 60 min): 2.411; expression, lexA (microarray database) ([6]; 120 min): 3.48; expression, oxyR (microarray database) ([6]; 120 min): 3.362 |
| GIGKFLKKAKKFGKAFVKILKK-NH2 (C-terminus assumed) [Pexiganan] | – | did not change | – | – | – | – | – | – | 0.893 | 0.846 | 1.114 | 1.049 | 4.048 | 1.187 | 3.074 | 2.447 | 0.733 | 1.108 | 1.353 | 0.925 | MIC (E. coli MG1655 [4]): 2 µg/mL; Result, cpxA [3]: NDE; Result, cpxR [3]: NDE; Result, dinB [3]: NDE; Result, lexA [3]: NDE; Result, marR [3]: UP (4.05-fold); Result, oxyR [3]: NDE; Result, phoP [3]: UP (3.07-fold); Result, phoQ [3]: UP (2.45-fold); Result, recA [3]: NDE; Result, rpoE [3]: NDE; Result, rpoS [3]: NDE; Result, umuC [3]: NDE; overexpression of three envelope stress genes (marR, phoP and phoQ) ([3]; qPCR, 20 minutes exposure): overexpression |
